We go through two compounds from patent US20260078145A1, “Polypeptides having cholesterol-lowering function in soybean protein hydrolysate, preparation method thereof, and uses thereof” (WUHAN ZHENFU INNOVATION BIOPHARMACEUTICAL CO., LTD, priority 2023, published 2026).

In one series the test system is hyperlipidemic rats. Kind of series: Serum lipid levels in hyperlipidemic rat model after oral gavage. The format is in vivo, Sprague-Dawley (SD) rats. The following applies: after 4 weeks of oral gavage, high-fat diet rats. The procedure: After 1-2 weeks of feeding the high-fat diet to the modeling group, blood was collected from the blank control group and the modeling group without fasting (from the inner canthus or tail). Serum was separated as soon as possible after blood collection, and serum levels of Total Cholesterol (TC), Triglycerides (TG), Low-Density Lipoprotein Cholesterol (LDL-C), and High-Density Lipoprotein Cholesterol (HDL-C) were measured. The modeling group was randomly divided into 3 groups (model control group, cholesterol-lowering peptide group, lovastatin control group). No significant differences in TC, TG, LDL-C, and HDL-C were observed among these groups.
All rats had free access to water.

A short description of series [1]: Rat body weight during oral gavage.
Description: (§1) A hyperlipidemic animal model was established as follows: Forty healthy adult male Sprague-Dawley (SD) rats, weighing 200±20 g, were used. A blank control group of 10 rats was fed a standard diet. The remaining 30 rats constituted the modeling group and were fed a high-fat diet (commercially available, 60% fat content).
(§2) The blank control group and the model control group were administered an equal volume of 0.9% physiological saline by oral gavage. The other two groups were administered aqueous solutions of the test samples by oral gavage.
(§3) During the gavage period, the blank control group was fed a standard diet daily, while the other groups continued receiving the high-fat diet. All rats had free access to water. Oral gavage was performed once daily for 4 consecutive weeks, and body weights were measured regularly.
The conditions of series [2]: rat, in vivo, po.
Description: as §1, §2, §3

Where two headings read alike, the source gives them in different places. Marks after values point to notes of the source that are not given here. Ends that are not written are not given here.

Regarding `CC[C@H](C)C(=O)O[C@H]1C[C@@H](C)C=C2C=C[C@H](C)[C@H](CC[C@@H]3C[C@@H](O)CC(=O)O3)[C@H]21` [Lovastatin], in the series on hyperlipidemic rats, the “High-Density Lipoprotein Cholesterol (HDL-C)” value is on record as 0.54**, the “Low-Density Lipoprotein Cholesterol (LDL-C)” value is recorded as 0.32**, the “Total Cholesterol (TC)” value is 3.06** and the “Triglycerides (TG)” value is recorded as 0.98**. Also, the “effect on rat body weight” value in series [1] (Day 14 and Day 28 of administration, compared among groups) is “no significant effect”. The “Body Weight (g) At Day 0 of Administration” value in series [1] (high-fat diet rats, oral gavage once daily, Day 0) was 200.78 g. Also, the “Body Weight (g) At Day 14 of Administration” value in series [1] (high-fat diet rats, oral gavage once daily, Day 14) is on record as 221.16 g. The “Body Weight (g) At Day 28 of Administration” value in series [1] (high-fat diet rats, oral gavage once daily, Day 28) worked out at 236.39 g.
As for FFFPF [FFFPF], in series [2], the “Body Weight (g) At Day 0 of Administration” value was found to be 200.89 g, the “Body Weight (g) At Day 14 of Administration” value is 220.75 g and the “Body Weight (g) At Day 28 of Administration” value turned out to be 237.35 g.
